Experimental data as given in patent publication US11986471B2, “Compounds and methods of use” (Tango Therapeutics, Inc., priority 2018, dated 2024).

Tests used:
PRMT5 [1] = target: T1, PRMT5 (Homo sapiens, UniProt O14744); assay: PRMT5 IC50 assay in the presence of SAM as cofactor; type: biochemical
T1 construct: purchased Viva (custom protein)
Method in brief: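 Three cofactor conditions tested for PRMT5 inhibition: none, MTA and SAM, each giving an IC50. For conversion to Ki, the MTA-condition IC50 is divided by 13.5 and the SAM-condition IC50 by 1.5, and the two Ki values are expressed as a SAM/MTA ratio.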

PRMT5 [2] = target: T1, PRMT5; assay: PRMT5 IC50 assay with no cofactor; type: biochemical
Method in brief: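 Enzyme: human PRMT5. Conditions: plus SAM, plus MTA, or cofactor-free. Output: IC50 (μM); Ki via IC50/1.5 (SAM) or IC50/13.5 (MTA).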

PRMT5 [3] = target: T1, PRMT5; assay: PRMT5 IC50 assay in the presence of MTA as cofactor; type: biochemical; conditions: for IC50: PRMT5, MTA as cofactor
Method in brief: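 Potency against PRMT5 is compared across cofactor states, where IC50 equals Ki×1.5 with SAM present and Ki×13.5 with MTA present.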

HAP1 MTAP-intact = assay: SDMA in-cell western assay, HAP1 MTAP-intact cell line; type: cell-based; conditions: Homo sapiens
Method in brief: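 Potency reflects cellular SDMA reduction, detected by in-cell western, in HAP1 cells with or without MTAP (endogenous expression versus null).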

HAP1 MTAP-deleted = assay: SDMA in-cell western assay, HAP1 MTAP-deleted cell line; type: cell-based; conditions: for IC50: Homo sapiens, HAP1 MTAP-deleted cell line; for MTAP Intact/Deleted Ratio: IC50 ratio HAP1 MTAP-intact / HAP1 MTAP-deleted
Method in brief: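 These are IC50 values from an in-cell western measuring SDMA. The HAP1 cells used carry no MTAP, in contrast to the isogenic partner line with endogenous MTAP expression.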

[4] = ratio between the Ki in the presence of SAM and the Ki in the presence of MTA
[5] = ratio between Ki in the presence of SAM and Ki in the presence of MTA

T1 sequence (O14744 whole entry): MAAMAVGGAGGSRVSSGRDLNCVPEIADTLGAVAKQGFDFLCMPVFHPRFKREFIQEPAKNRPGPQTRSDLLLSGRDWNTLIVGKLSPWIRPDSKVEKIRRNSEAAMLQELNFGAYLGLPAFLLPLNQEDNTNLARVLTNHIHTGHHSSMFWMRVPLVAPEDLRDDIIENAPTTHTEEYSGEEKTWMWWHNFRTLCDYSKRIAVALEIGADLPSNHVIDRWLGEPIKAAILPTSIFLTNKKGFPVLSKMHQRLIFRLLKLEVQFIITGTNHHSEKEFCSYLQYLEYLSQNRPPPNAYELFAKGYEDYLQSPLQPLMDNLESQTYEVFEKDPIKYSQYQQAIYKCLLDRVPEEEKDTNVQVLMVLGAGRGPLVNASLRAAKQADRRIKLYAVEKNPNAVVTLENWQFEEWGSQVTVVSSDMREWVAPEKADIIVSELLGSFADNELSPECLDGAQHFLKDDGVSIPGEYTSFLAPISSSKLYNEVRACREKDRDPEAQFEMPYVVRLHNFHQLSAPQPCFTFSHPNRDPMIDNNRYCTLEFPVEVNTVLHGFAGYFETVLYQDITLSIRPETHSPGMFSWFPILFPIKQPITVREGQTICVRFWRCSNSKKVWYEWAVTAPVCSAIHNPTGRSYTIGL
T1 sequence (Q9BQA1 whole entry partner): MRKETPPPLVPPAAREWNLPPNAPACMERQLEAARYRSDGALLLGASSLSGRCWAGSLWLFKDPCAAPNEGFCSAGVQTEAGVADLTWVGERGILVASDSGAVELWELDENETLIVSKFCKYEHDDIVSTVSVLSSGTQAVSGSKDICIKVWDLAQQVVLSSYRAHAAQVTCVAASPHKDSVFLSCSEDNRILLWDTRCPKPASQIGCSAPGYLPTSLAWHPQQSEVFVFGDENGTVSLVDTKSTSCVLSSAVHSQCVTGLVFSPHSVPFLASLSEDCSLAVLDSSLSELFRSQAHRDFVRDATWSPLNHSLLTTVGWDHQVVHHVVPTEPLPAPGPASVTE

Row | SMILES | IC50 (PRMT5 [1]) [nM] | IC50 (PRMT5 [2]) [nM] | IC50 (PRMT5 [3]) [nM] | IC50 (HAP1 MTAP-intact) [nM] | IC50 (HAP1 MTAP-deleted) [nM] | IC50 (PRMT5 [2]; read-out: No Co-factor IC50) [nM] | SAM/MTA Ratio (PRMT5 [3]; [4]) | MTAP Intact/Deleted Ratio (HAP1 MTAP-deleted) | SAM/MTA Ratio (PRMT5 [3]; [5])
1 | CCCC(=O)N1CC(Nc2cc(C(=O)NC[C@H](O)CN3CCc4c(ccc(OCc5cnco5)c4C)C3)ccn2)C1 [Compound 551, (S)-2-((1-butyrylazetidin-3-yl)amino)-N-(2-hydroxy-3-(5-methyl-6-(oxazol-5-ylmethoxy)-3,4-dihydroisoquinolin-2(1H)-yl)propyl)isonicotinamide] | 50 to 500 | 500 to 5000 | 50 to 500 | ≥ 10000 | ≥ 10000 |  | A (a Ki ratio greater than or equal to 10 fold between the Ki in the presence of SAM and the Ki in the presence of MTA) | C* (an IC50 ratio of less than 3 fold between the IC50 in the HAP1 MTAP-intact cell line and the HAP1 MTAP-deleted cell line) | 
2 | CCCC(=O)N1CC(Nc2cc(C(=O)NC[C@H](O)CN3CCc4cc(OCc5cnco5)ccc4C3)ccn2)C1 [Compound 434] | 50 to 500 | ≥ 5000 | 50 to 500 | 1000 to 10000 | < 1000 |  | A (a Ki ratio greater than or equal to 10 fold between the Ki in the presence of SAM and the Ki in the presence of MTA) | C* (an IC50 ratio of less than 3 fold between the IC50 in the HAP1 MTAP-intact cell line and the HAP1 MTAP-deleted cell line) | 
3 | O=C(NC[C@H](O)CN1CCc2cc(OCc3cnco3)ccc2C1)c1cccc(NC2CCC2)c1 [Compound 259, (S)-3-(cyclobutylamino)-N-(2-hydroxy-3-(6-(oxazol-5-ylmethoxy)-3,4-dihydroisoquinolin 2(1H)-yl)propyl)benzamide] | 500 to 5000 |  | 500 to 5000 | < 1000 | < 1000 | ≥ 5000 |  | C* (an IC50 ratio of less than 3 fold between the IC50 in the HAP1 MTAP-intact cell line and the HAP1 MTAP-deleted cell line) | A (a Ki ratio greater than or equal to 10 fold between the Ki in the presence of SAM and the Ki in the presence of MTA)
4 | CC(=O)N1CCC(Nc2cc(C(=O)NC[C@H](O)CN3CCc4cc(OCc5cnco5)ccc4C3)ncn2)CC1 [Compound 135, 6-[(1-acetyl-4-piperidyl)amino]-N-[(2S)-2-hydroxy-3-[6-(oxazol-5-ylmethoxy)-3,4-dihydro-1H-isoquinolin-2-yl]propyl]pyrimidine-4-carboxamide] | 50 to 500 |  | 50 to 500 | 1000 to 10000 | 1000 to 10000 | ≥ 5000 |  | C* (an IC50 ratio of less than 3 fold between the IC50 in the HAP1 MTAP-intact cell line and the HAP1 MTAP-deleted cell line) | A (a Ki ratio greater than or equal to 10 fold between the Ki in the presence of SAM and the Ki in the presence of MTA)
5 | Cc1ncoc1COc1ccc2c(c1C)CCN(C[C@@H](O)CNC(=O)c1cc(NC3CCCC3)ncn1)C2 [Compound 367, 6-(cyclopentylamino)-N-[(2S)-2-hydroxy-3-{5-methyl-6-[(4-methyl-1,3-oxazol-5-yl)methoxy]-1,2,3,4-tetrahydroisoquinolin-2-yl}propyl]pyrimidine-4-carboxamide] | 500 to 5000 |  | 50 to 500 | ≥ 10000 | ≥ 10000 | ≥ 5000 |  | C* (an IC50 ratio of less than 3 fold between the IC50 in the HAP1 MTAP-intact cell line and the HAP1 MTAP-deleted cell line) | A (a Ki ratio greater than or equal to 10 fold between the Ki in the presence of SAM and the Ki in the presence of MTA)
6 | Cc1c(OCc2cnco2)ccc2c1CCN(C[C@@H](O)CNC(=O)c1cc(NC3CCN(C(=O)CC(C)C)CC3)ncn1)C2 [Compound 528] | 50 to 500 | 500 to 5000 | 50 to 500 | ≥ 10000 | 1000 to 10000 |  | A (a Ki ratio greater than or equal to 10 fold between the Ki in the presence of SAM and the Ki in the presence of MTA) | C* (an IC50 ratio of less than 3 fold between the IC50 in the HAP1 MTAP-intact cell line and the HAP1 MTAP-deleted cell line) | 

Now from value to compound, other results behind:

Row | IC50 (PRMT5 [1]) [nM] | IC50 (PRMT5 [2]) [nM] | IC50 (PRMT5 [3]) [nM] | IC50 (HAP1 MTAP-intact) [nM] | IC50 (HAP1 MTAP-deleted) [nM] | IC50 (PRMT5 [2]; read-out: No Co-factor IC50) [nM] | SMILES | SAM/MTA Ratio (PRMT5 [3]; [4]) | MTAP Intact/Deleted Ratio (HAP1 MTAP-deleted) | SAM/MTA Ratio (PRMT5 [3]; [5])
7 | 50 to 500 | 500 to 5000 | 50 to 500 | 1000 to 10000 | < 1000 |  | CC(=O)N1CC(Nc2cc(C(=O)NC[C@H](O)CN3CCc4cc(OCc5ocnc5C)ccc4C3)nc(C(C)C)n2)C1 [Compound 568, (S)-6-((1-acetylazetidin-3-yl)amino)-N-(2-hydroxy-3-(6-((4-methyloxazol-5-yl)methoxy)-3,4-dihydroisoquinolin-2(1H)-yl)propyl)-2-isopropylpyrimidine-4-carboxamide] | A (a Ki ratio greater than or equal to 10 fold between the Ki in the presence of SAM and the Ki in the presence of MTA) | C* (an IC50 ratio of less than 3 fold between the IC50 in the HAP1 MTAP-intact cell line and the HAP1 MTAP-deleted cell line) | 
8 | 50 to 500 | 50 to 500 | 50 to 500 | < 1000 | < 1000 |  | Cc1ncoc1COc1ccc2c(c1)CCN(C[C@@H](O)CNC(=O)c1cc(NC3CCC3)nc(N3CCN(C(=O)C4CC4)CC3)c1)C2 [Compound 455, 2-(cyclobutylamino)-6-(4-cvclopropanecarbonylpiperazin-1-yl)-N-[(2S)-2-hydroxy-3-{6-[(4-methyl-1,3-oxazol-5-yl)methoxy]-1,2,3,4-tetrahydroisoquinolin-2-yl}propyl]pyridine-4-carboxamide] | A (a Ki ratio greater than or equal to 10 fold between the Ki in the presence of SAM and the Ki in the presence of MTA) | B* (an IC50 ratio greater than or equal to 3 fold but lower than 10 fold between the IC50 in the HAP1 MTAP-intact cell line and the HAP1 MTAP-deleted cell line) | 
9 | 50 to 500 | 50 to 500 | < 50 | < 1000 | < 1000 |  | Cc1ncoc1COc1ccc2c(c1)CCN(C[C@@H](O)CNC(=O)c1cc(NC3CC4(CC4)C3)nc(N3CCN(C(=O)C4CC4)CC3)c1)C2 [Compound 611, (S)-2-(4-(cyclopropanecarbonyl)piperazin-1-yl)-N-(2-hydroxy-3-(6-((4-methyloxazol-5-yl)methoxy)-3,4-dihydroisoquinolin-2(1H)-yl)propyl)-6-(spiro[2.3]hexan-5-ylamino)isonicotinamide] | A (a Ki ratio greater than or equal to 10 fold between the Ki in the presence of SAM and the Ki in the presence of MTA) | B* (an IC50 ratio greater than or equal to 3 fold but lower than 10 fold between the IC50 in the HAP1 MTAP-intact cell line and the HAP1 MTAP-deleted cell line) | 
10 | 50 to 500 |  | 50 to 500 | 1000 to 10000 | < 1000 | ≥ 5000 | Cc1ncoc1COc1ccc2c(c1)CCN(C[C@@H](O)CNC(=O)c1cc(NC3CCC3)nc(N(C)C3CCC3)c1)C2 [Compound 635] |  | A* (an IC50 ratio greater than or equal to 10 fold between the IC50 in the HAP1 MTAP-intact cell line and the HAP1 MTAP-deleted cell line) | A (a Ki ratio greater than or equal to 10 fold between the Ki in the presence of SAM and the Ki in the presence of MTA)
